Where “and” joins values, the source holds several entries; their conditions need not be identical. Equal values may be shown once. Numbers after ± are expanded uncertainties.
Settings: Liquid

SMILES	vapor or sublimation pressure (273.15 K) [kPa]	vapor or sublimation pressure (283.15 K) [kPa]	vapor or sublimation pressure (293.15 K) [kPa]	vapor or sublimation pressure (303.15 K) [kPa]	vapor or sublimation pressure (313.15 K)	vapor or sublimation pressure (323.15 K) [kPa]	vapor or sublimation pressure (268.15 K) [kPa]	vapor or sublimation pressure (278.15 K) [kPa]	vapor or sublimation pressure (288.15 K) [kPa]	vapor or sublimation pressure (298.15 K) [kPa]	vapor or sublimation pressure (308.15 K) [kPa]	vapor or sublimation pressure (318.15 K) [kPa]
FCC(F)(F)F [1,1,1,2-tetrafluoroethane]	294.2 ± 2.5	416.9 ± 3.3	571.9 ± 4.3	770.4 ± 5.6	1012.8 ± 7.1 kPa	1313.8 ± 9.1	–	–	–	–	–	–
CCC [propane]	474.6 ± 3.7	636.6 ± 4.7	836.2 ± 6	1078.4 ± 7.6	1369 ± 12 kPa and 1363.8 ± 9.4 kPa	1709.2 ± 12	407.9 ± 3.3	549.4 ± 4.2	735 ± 5.4	954.8 ± 6.8	1213 ± 8.4	1530.8 ± 10
CC(F)(F)F [1,1,1-trifluoroethane]	–	–	–	–	–	–	529.2 ± 4	722.4 ± 5.3	962 ± 6.8	1261.8 ± 8.7	1619.8 ± 11	2055.2 ± 14

Reference: the NIST ThermoML archive (doi:10.1016/j.fluid.2006.02.016)
